The values that follow are results of earlier work, collected in US20250169750A1 (HEMOLENS DIAGNOSTICS SP. Z O.O., priority 2022, published 2025).

One series has as its target A2A adenosine receptors (Homo sapiens, UniProt P29274).
In series [1] the test system is coronary vascular responsiveness to adenosine. The following applies: for coronary conductance change / systemic pressure change: dog, in vivo.

Each structure is given as a SMILES string.

A2A adenosine receptors, sequence (P29274 whole entry): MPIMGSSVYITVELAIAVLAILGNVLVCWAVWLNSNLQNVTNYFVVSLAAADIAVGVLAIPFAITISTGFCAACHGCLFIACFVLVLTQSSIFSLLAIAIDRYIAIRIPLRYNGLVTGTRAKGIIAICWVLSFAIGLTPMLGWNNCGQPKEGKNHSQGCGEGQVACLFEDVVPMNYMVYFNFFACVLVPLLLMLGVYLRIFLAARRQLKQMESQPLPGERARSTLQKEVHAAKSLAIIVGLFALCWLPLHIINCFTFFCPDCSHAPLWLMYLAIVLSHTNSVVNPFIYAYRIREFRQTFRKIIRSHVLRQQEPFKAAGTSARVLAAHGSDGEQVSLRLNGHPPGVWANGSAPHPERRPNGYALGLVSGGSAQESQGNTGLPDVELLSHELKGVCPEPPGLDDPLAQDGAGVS

`Nc1nc(N/N=C/C2CCCCC2)nc2c1ncn2[C@@H]1O[C@H](CO)[C@@H](O)[C@H]1O` [Binodenoson]: the “affinity to an Adenosine receptor (comparison)” value at A2A adenosine receptors (APA vs BND) was “equal”. Also, at A2A adenosine receptors (intravenous bolus), the “duration of the action” value is reported as “less than 5 minutes”.

For `COc1ccc(Cl)cc1C(=O)NCCc1ccc(S(=O)(=O)NC(=O)NC2CCCCC2)cc1` [Glibenclamide], the “change of Adenosine ED50” value in series [1] (after Glibenclamide administration) is given as “increased dose-dependently”. In series [1], the coronary conductance change entry is recorded as “reduction in coronary conductance” and the systemic pressure change result is “increase in systemic pressure”.

As for `COC(=O)[C@@H](N)CCCNC(=N)N[N+](=O)[O-]` [L-NAME, N^ω-Nitro-L-arginine methyl ester], the “change of Adenosine plasma concentration needed to reach 50% of maximal conductivity increase (ED50)” value in series [1] (after 1 mg/kg or 10 mg/kg of L-NAME, vs basal condition) was “increased three times”. In addition, in series [1], the coronary conductance change result was “reduction in coronary conductance” and the systemic pressure change entry is recorded as “increase in systemic pressure”.

For the compound `CNC(=O)c1cnn(-c2nc(N)c3ncn([C@@H]4O[C@H](CO)[C@@H](O)[C@H]4O)c3n2)c1` [Regadenoson], under “400 μg bolus vs Dipyridamole 0.56 mg/kg or Adenosine 140 μg/kg/min, 15 healthy volunteers”, the “stress myocardial blood flow (MBF), comparison” value is “higher values”. The “heart rate (HR), comparison” value (400 μg bolus vs Dipyridamole or Adenosine) is listed as “higher values”. In addition, under “Regadenoson vs Adenosine”, the “stress MBF adjusted to HR, comparison” value was “no differences between Adenosine and Regadenoson”; the “stress MPR adjusted to HR, comparison” value is “no differences between Regadenoson and Adenosine”. The “unadjusted myocardial perfusion reserve (MPR), comparison” value (vs Adenosine and Dipyridamole) was “higher”.
